We go through 22 molecules from publication PMC8070564, “Synthesis and Antiviral Activity of Camphene Derivatives against Different Types of Viruses” (Molecules, 2021).

Series [1] can be described thus: in vitro. Particulars: dog.
Another series deals with rVSV-ΔG-G. Briefly: microbe, parasite or virus in culture. The format is cell-based. As to conditions: Vesicular stomatitis virus, HEK-293T, read-out: IC50 VSV-G.
Series [2] is described as follows: in vitro. As to conditions: human.
In a further series the test system is EBOV (strain Zaire). The series is described as follows: microbe, parasite or virus in culture. The format is cell-based, Ebola virus (EBOV). Particulars: for IC50: read-out: IC50 EBOV.
The subject of series [3] is influenza virus A/Puerto Rico/8/34 (H1N1). The series is described as follows: microbe, parasite or virus in culture. Particulars: H1N1, MDCK, read-out: IC50 H1N1. The series is classed as cell-based.
The subject of another series is rVSV-ΔG-EboV-GP. Briefly: microbe, parasite or virus in culture. The series is classed as cell-based, Ebola pseudotype viruses. As to conditions: Zaire ebolavirus, HEK-293T, read-out: IC50 EboV-GP.
A further series has as its system rVSV-ΔG-MarV-GP. The series is described as follows: organism not typed. The format is cell-based, Marburg pseudotype viruses. As to conditions: HEK-293T, read-out: IC50 MarV-GP.
Series [4] can be described thus: in vitro. Particulars: African green monkey.
For the next series, the system named is rVSV-ΔG-Gn-Gc. Briefly: microbe, parasite or virus in culture. The format is cell-based, Hantaan virus strain 76–118. As to conditions: Orthohantavirus hantanense, HEK-293T, read-out: IC50 rVSV-ΔG-Gn-Gc.
The nature of series [5]: Cytotoxicity in HEK293T cells (Table 5). Particulars: human.
Series [6] can be described thus: in vitro. As to conditions: African green monkey. The source holds these as a separate data set.
The test system of another series is vaccinia virus (VV). As to conditions: cited from earlier work.
Series [7] relates to influenza virus A/Puerto Rico/8/34 (H1N1). As to conditions: cited from earlier work.
In series [8] the test system is vaccinia virus (strain Copenhagen). Briefly: microbe, parasite or virus in culture. The series is classed as cell-based. As to conditions: Orthopoxvirus vaccinia, Vero, read-out: IC50 VV.
Series [9] has as its system Marburg virus (MARV) (strain Popp). Particulars: cited from earlier work.
Series [10] has as its system Ebola virus (EBOV) (strain Zaire). Particulars: cited from earlier work.

Like-named read-outs stand apart in the source and are kept apart here. Where only a bound is given, the exact number is not on record here.

As usually defined, the IC50 is the point on the concentration scale where inhibition reaches its midpoint. `CC1CCN(CCO[C@@H]2C[C@H]3CC[C@]2(C)C3(C)C)CC1` (racemic) [Compound 4a, (±)-4-Methyl-1-(2-(1,7,7-trimethylbicyclo(2.2.1)]heptan-2-yloxy)ethyl)piperidine]: the CC50 in “in vitro [1]” was over 1070 µM; in the series “in vitro [2]”, 447 ± 10.7 µM. Moreover, the 50% inhibitory concentration (IC50) in the series with rVSV-ΔG-G worked out at 111 ± 3.6 µM; in series [3], 37.9 ± 5.6 µM; in the series on rVSV-ΔG-EboV-GP it was 1.3 ± 0.1 µM; in the series with rVSV-ΔG-MarV-GP, 60.8 ± 1.8 µM. Besides, the “IC50 EBOV” value with EBOV (strain Zaire) was “did not show antiviral activity”.
On to `CC1(C)[C@@H]2CC[C@@]1(C)[C@H](OCCN1CCCCC1)C2` (racemic) [Compound 3a, (±)-1-(2-(1,7,7-Trimethylbicyclo(2.2.1)heptan-2-yloxy)ethyl)piperidine], for which the CC50 in the series “in vitro [4]” is 55.9 ± 12.2 µM; in “in vitro [1]”, over 1130 µM; in the series “in vitro [2]”, 942 ± 18.8 µM; in series [5], 151 ± 18.8 µM. Further, the IC50 came to 5 ± 0.8 µM in the series on rVSV-ΔG-Gn-Gc; 942 ± 18.8 µM with rVSV-ΔG-G; 15.2 ± 2.1 µM in the series with EBOV (strain Zaire) (Zaire ebolavirus, Vero); 64.8 ± 5.9 µM in [3]; 6.3 ± 0.3 µM in the series with rVSV-ΔG-EboV-GP.
`CN[C@H]1CC[C@@H](c2ccc(Cl)c(Cl)c2)c2ccccc21` [Sertraline, sertraline, reference compound] showed a CC50 in the series “in vitro [2]” of 408 ± 35.9 µM.
Consider `CC1(C)[C@@H]2CC[C@@]1(C)[C@H](OCCCN1CCCCC1)C2` (racemic) [Compound 3b, (±)-1-(3-(1,7,7-Trimethylbicyclo(2.2.1)heptan-2-yloxy)propyl)piperidine], for which the CC50 in the series “in vitro [6]” stood at 140 ± 8.7 µM; in “in vitro [1]”, 950 ± 52.5 µM; in “in vitro [2]” it was 2120 ± 49.2 µM. Moreover, the IC50 with rVSV-ΔG-G was 946 ± 22.7 µM; in [3], 347 ± 41.1 µM; with rVSV-ΔG-EboV-GP it was 473 ± 11.4 µM; in the series on rVSV-ΔG-MarV-GP, 170 ± 3.8 µM.
As for `CN1CCN(CCO[C@@H]2C[C@H]3CC[C@]2(C)C3(C)C)CC1` (racemic) [Compound 5a, (±)-1-Methyl-4-(2-(1,7,7-trimethylbicyclo(2.2.1)heptan-2-yloxy)ethyl)piperazine], the results for the CC50 in the series “in vitro [6]”, in the series “in vitro [1]” and in the series “in vitro [2]” were 100 ± 6.1 µM, 28.5 ± 1.2 µM and 653 ± 14.3 µM, respectively. Moreover, the 50% inhibitory concentration (IC50) in [3] is 13.2 ± 2 µM; in the series with rVSV-ΔG-MarV-GP, 85.6 ± 1.8 µM.
Consider `CN1CCN(CCC(=O)O[C@@H]2C[C@@H]3CC[C@@]2(C)C3(C)C)CC1` [Ic], for which the half-inhibitory concentration (IC50) in the series on vaccinia virus (VV) was 64.8 µM; in series [7], 1.9 µM.
As for `CN1CCN(CCCO[C@@H]2C[C@H]3CC[C@]2(C)C3(C)C)CC1` (racemic) [Compound 5b, (±)-1-Methyl-4-(3-(1,7,7-trimethylbicyclo(2.2.1)heptan-2-yloxy)propyl)piperazine], the CC50 in the series “in vitro [6]” stood at 64.2 ± 3.1 µM; in the series “in vitro [1]” it was 51 ± 4.1 µM; in the series “in vitro [2]” it was 109 ± 3.4 µM. Also, in series [3], the IC50 is over 37.4 µM.
In turn, `O=C(NN1C(=O)[C@@H]2[C@@H]3C=C[C@@H]([C@H]4C[C@@H]34)[C@@H]2C1=O)c1ccc(C(F)(F)F)cc1` [ST-246, reference compound] registered a CC50 in the series “in vitro [6]” of 1280 ± 202 µM. In series [8], the IC50 is 0.01 ± 0.003 µM.
For `CC1CCN(CCCO[C@@H]2C[C@H]3CC[C@]2(C)C3(C)C)CC1` (racemic) [Compound 4b, (±)-4-Methyl-1-(3-(1,7,7-trimethylbicyclo(2.2.1)heptan-2-yloxy)propyl)piperidine], the values for the CC50 in “in vitro [6]”, in “in vitro [1]” and in “in vitro [2]” were 40.9 ± 2.7 µM, 491 ± 32.2 µM and 141 ± 3.4 µM, respectively. For the same molecule, the figures for the IC50 (in series [3]; in the series with rVSV-ΔG-MarV-GP) were 69.7 ± 8.4 µM and 96.1 ± 3.4 µM, respectively.
Take `CC1(C)[C@@H]2CC[C@@]1(C)[C@H](OCCN1CCCC1)C2` (racemic) [Compound 2a, (±)-1-(2-(1,7,7-Trimethylbicyclo(2.2.1)heptan-2-yloxy)ethyl)pyrrolidine]: the CC50 in “in vitro [4]” was 231 ± 16.5 µM; in the series “in vitro [1]”, over 1190 µM; in the series “in vitro [2]” it was 497 ± 8 µM; in series [5], 358 ± 27.8 µM. The IC50 was 9.1 ± 1.2 µM in the series on rVSV-ΔG-Gn-Gc; 123 ± 4 µM in the series with rVSV-ΔG-G; 18.3 ± 3.1 µM in the series on EBOV (strain Zaire) (Zaire ebolavirus, Vero); 45.3 ± 5.2 µM in series [3]; 0.12 ± 0.04 µM with rVSV-ΔG-EboV-GP; 73.6 ± 1.9 µM with rVSV-ΔG-MarV-GP.
Turning to `CC1(C)[C@@H]2CC[C@@]1(C)[C@H](OCCCN1CCN(Cc3ccccc3)CC1)C2` (racemic) [Compound 6b, (±)-1-Benzyl-4-(3-(1,7,7-trimethylbicyclo(2.2.1)heptan-2-yloxy)propyl)piperazine], the figures for the CC50 in the series “in vitro [6]”, in “in vitro [1]” and in the series “in vitro [2]” were 21.3 ± 2.2 µM, 10.8 ± 0.8 µM and 148 ± 5.4 µM, respectively. The IC50 in [3] was over 8 µM; in the series with rVSV-ΔG-EboV-GP, 67.5 ± 2.7 µM; in the series with rVSV-ΔG-MarV-GP, 124 ± 2.7 µM.
Molecule `NC(=O)c1ncn([C@@H]2O[C@H](CO)[C@@H](O)[C@H]2O)n1` [Ribavirin, reference compound] had a CC50 in “in vitro [1]” of over 2000 µM. Further, the IC50 in series [3] is 24.6 ± 3.7 µM.
Regarding `CC1(C)[C@H]2CC[C@]1(C)[C@H](OC(=O)CCN1CCCCC1)C2` [Ia], the half-inhibitory concentration (IC50) was 3.7 µM in [9], 121 µM with vaccinia virus (VV), 7.8 µM in series [7] and 47.5 µM in series [10].
In the case of `CC1(C)[C@@H]2CC[C@@]1(C)[C@H](OCCCN1CCCCCC1)C2` (racemic) [Compound 8b, (±)-1-(3-((1,7,7-Trimethylbicyclo(2.2.1)heptan-2-yloxy)propyl)azepane], the CC50 in the series “in vitro [6]” was determined as 23.7 ± 2.7 µM; in “in vitro [1]”, 374 ± 22.8 µM; in the series “in vitro [2]” it was 704 ± 10.3 µM. In series [3], the IC50 turned out to be 320 ± 36.9 µM.
As to `CC1(C)[C@H]2CC[C@]1(C)[C@H](OC(=O)CCN1CCOCC1)C2` [Id], the 50% inhibitory concentration (IC50) in the series on vaccinia virus (VV) was 3.4 µM; in series [7], 12.2 µM.
As for `CC1(C)[C@@H]2CC[C@@]1(C)[C@H](OCCN1CCN(Cc3ccccc3)CC1)C2` (racemic) [Compound 6a, (±)-1-Benzyl-4-(2-(1,7,7-trimethylbicyclo(2.2.1)heptan-2-yloxy)ethyl)piperazine], the CC50 worked out at 14 ± 1.7 µM in “in vitro [6]”, 33.7 ± 2.8 µM in the series “in vitro [1]” and 575 ± 11.2 µM in the series “in vitro [2]”. Moreover, in series [3], the concentration for half-maximal inhibition (IC50) amounted to 3.4 ± 0.5 µM.
For `CC1(C)[C@@H]2CC[C@@]1(C)[C@H](OCCN1CCOCC1)C2` (racemic) [Compound 7a, (±)-4-(2-(1,7,7-Trimethylbicyclo(2.2.1)heptan-2-yloxy)ethyl)morpholine], the IC50 was 14.8 ± 1.9 µM in the series on rVSV-ΔG-Gn-Gc; 935 ± 26.2 µM in the series with rVSV-ΔG-G; 5.63 µM in the series with EBOV (strain Zaire) (Zaire ebolavirus, Vero); 5.6 ± 0.9 µM with EBOV (strain Zaire); 252 ± 31.1 µM in [3]; 0.6 ± 0.2 µM in the series with rVSV-ΔG-EboV-GP. Moreover, the concentration for half-maximal inhibition (IC50) in the series on rVSV-ΔG-MarV-GP was 150 ± 3.7 µM. Moreover, the CC50 in the series “in vitro [1]” stood at 385 ± 19.7 µM; in “in vitro [2]”, 860 ± 22.4 µM; in series [5] it was 1160 ± 56.1 µM.
In the case of `CC1(C)[C@@H]2CC[C@@]1(C)[C@H](OCCCN1CCOCC1)C2` (racemic) [Compound 7b, (±)-4-(3-(1,7,7-trimethylbicyclo(2.2.1)heptan-2-yloxy)propyl)morpholine], the CC50 in “in vitro [6]” is 174 ± 11.9 µM; in the series “in vitro [1]”, 562 ± 48.2 µM; in the series “in vitro [2]”, 1440 ± 28.4 µM. Further, the IC50 in series [3] came out at 24.2 ± 3.1 µM.
Take `CC1CCN(CCC(=O)O[C@@H]2C[C@@H]3CC[C@@]2(C)C3(C)C)CC1` [Ib]: the concentration for half-maximal inhibition (IC50) in series [9] was 2.2 µM; in series [7] it was 15.3 µM; in [10], 54.3 µM.
In the case of `CC(N)C12CC3CC(CC(C3)C1)C2` (stereo not drawn) [Rimantadine, reference compound], in “in vitro [1]”, the CC50 is 335 ± 27 µM. In series [3], the half-maximal inhibitory concentration (IC50) stood at 67 ± 4.9 µM.
`CC1(C)[C@@H]2CC[C@@]1(C)[C@H](OCCN1CCCCCC1)C2` (racemic) [Compound 8a, (±)-1-(2-(1,7,7-Trimethylbicyclo(2.2.1)heptan-2-yloxy)ethyl)azepane]: the values for the CC50 in “in vitro [6]”, in “in vitro [1]” and in the series “in vitro [2]” were 19.1 ± 2.5 µM, 50.5 ± 4.5 µM and 721 ± 14.4 µM, respectively. Also, the concentration for half-maximal inhibition (IC50) in the series with rVSV-ΔG-G was determined as 361 ± 10.8 µM; in series [3], 35.3 ± 5 µM; with rVSV-ΔG-EboV-GP, 112 ± 3.6 µM; in the series with rVSV-ΔG-MarV-GP, 90.2 ± 3.6 µM.
In turn, `Nc1ccn(C[C@@H](CO)OCP(=O)(O)O)c(=O)n1` [Cidofovir, reference compound] showed a CC50 in the series “in vitro [6]” of 475 ± 30.1 µM. For the same molecule, the half-maximal inhibitory concentration (IC50) in [8] is 40 ± 1.2 µM.
